Reference: patent publication US4569910A, “Methods and reagents for pyranosone production” (Cetus Corporation, priority 1984, dated 1986)

Legend:
P. obtusus P2O = assay: Relative activities of purified P. obtusus P2O on pyranose substrates; assay type: biochemical; details: about 1% (w/v) substrate concentration; D-glucose = 100
Protocol: The P2O enzyme preparation from Example II was purified further using DEAE chromatography in 30 mM TRIS-HCl, pH 8.5, containing 2 mM EDTA and 10 ug/ml PMSF. The sample was eluted from a 5×16 cm column using a gradient of 0-300 mM NaCl. P2O activity was monitored using the orthodianisidine colorometric assay for the peroxide co-product, essentially as described by Ruelius et al., Biochim et Biophys. Acta 167, 493-500 (1968). P2O activity eluted at about 50 mM NaCl. Fractions containing the peak activity were pooled and concentrated to 0.5 ml by ultrafiltration using Amicon filters obtained from Amicon Corp. (Danvers, MA). Biogel P300 was obtained from Biorad Laboratories (Richmond, CA). The sample was further purified by molecular sieve chromatography using a 1.5×95 cm Biogel P300 column in 100 mM sodium phosphate, pH 7 buffer. The P2O activity eluted at a sharp peak corresponding to an apparent native molecular weight of about 290,000 daltons.
The enzyme appears to contain one covalently bound flavin molecule per subunit (detectable as UV-fluorescence in the 68,000 dalton SDS-PAGE band), and has absorption maxima at 276, 357 and 456 nm. The enzyme has a sedimentation coefficient of about 11.4, as determined by sucrose gradient ultracentrifugation. The relative activities of the enzyme, on D-glucose, L-sorbose, D-xylose, and D-gluconolactone are 100: 80: 48: 12, respectively, at about 1% (w/v) substrate concentration. As noted above with respect to FIG. 2, the enzyme has a broad pH optimum of between about 4.5 and 5.5.

C. versicolor P2O = biological target: T1, C. versicolor P2O (Trametes versicolor, UniProt P79076); assay: Relative activities of purified C. versicolor P2O on pyranose substrates; assay type: biochemical; details: 1% (w/v) substrate concentration; D-glucose = 100
T1 construct: endogenous in cells; host or cells: Coriolus versicolor, own culture (NRRL 15152 / CMCC 0748, selected high producer; native enzyme, purified)
Protocol: The enzyme was applied to a 2.6×40 cm DEAE column, washed, and eluted using a 0-300 mM NaCl gradient. The P2O elutes at about 220 mM. Portions of each fraction were assayed for P2O activity, by monitoring peroxide generation conventionally. Protein concentration was also determined by a conventional method. The fractions containing P2O activity were pooled and concentrated by ultrafiltration with an Amicon PM10 filter obtained from Amicon Corp. Peak fractions were dialyzed into 30 mM sodium acetate (pH 5.5), adjusted to 1.5M NaCl and loaded onto a phenylsepharose column. The P2O was eluted with a 0-1.5M NaCl gradient in 50 mM sodium acetate, pH 5.5. The enzyme eluted at about 1.1M NaCl. Fractions containing the peak activity were pooled and concentrated to 0.5 ml by Amicon PM30 ultrafiltration and sized according to native molecular weight using a 1.5×95 cm Biogel P300 column. Elution was at 0.1 ml/minute with 100 mM sodium phosphate, pH 7.0. Using known molecular weight markers in the column, the enzyme's apparent native molecular weight was calculated to be about 130,000 daltons. A single band having a molecular weight of about 65,000 was observed when the enzyme was analyzed by SDS-PAGE. The enzyme thus appears to be a homodimer. The enzyme was judged to be about 95% pure, based on the staining intensity of protein bands in SDS-PAGE.
The relative activities of the enzyme on the substrates D-glucose, L-sorbose, D-xylose and delta-D-gluconolactone are 100: 74: 41: 6, respectively, at 1% (w/v) substrate concentration. The enzyme has a pH optimum of about 5.0.

L. betulinus P2O = assay: Relative activities of purified L. betulinus P2O on pyranose substrates; assay type: biochemical; details: 20 mM substrate concentration; D-glucose = 100
Protocol: The resulting clear yellow supernatant was further purified using DEAE chromatography in 30 mM TRIS-HCl, pH 8.5, and eluted from the 5×16 cm column using a 0-300 mM NaCl gradient. The protein eluted at about 75 mM NaCl. Fractions containing the peak of P2O activity were pooled and concentrated to 0.5 ml by Amicon PM30 ultrafiltration, and then fractionated, according to native molecular weight, using a 1.5×95 cm Biogel P300 column. The column was run at a flow rate of 0.1 ml per minute, using 100 mM sodium phosphate, pH 7.0. The protein eluted in a fraction corresponding to an apparent native molecular weight of about 300,000 daltons. […] Based on the molecular weight data, the protein appears to be a homotetramer.
The enzyme contains a covalently attached flavin on each subunit, and has absorption maxima at 275, 360, and 450 nm. The relative activities of the purified enzyme on the pyranose substrates D-glucose, L-sorbose, D-xylose and delta-D-gluconolactone are 100: 43: 43: 26, respectively, at 20 mM substrate concentration. The enzyme has a broad pH optimum between about 5 and 6.

[1] = Nonenzymatic breakdown of purified glucosone (UV scans 200-350 nm; H2O2 effect); assay type: physicochemical; details: for Change of 310 nm peak (nonenzymatic breakdown): 0.5% glucosone solution, scans at one minute intervals
Protocol: The conversion of a pyranose to the corresponding pyranosone by P2O in the presence of oxygen is accompanied by the stoichiometric production of H2 O2. The H2 O2 produced in the reaction may promote oxidative degradation of the product. Studies performed in support of the present application indicate that nonenzymatic breakdown of glucosone to acidic products may be accelerated at H2 O2 concentrations above about 0.2 mM. More importantly, elevated H2 O2 concentrations produce relatively rapid inactivation of the P2O enzyme. The susceptibility of P2O to inactivation by elevated concentrations of H2 O2 in a continuous-flow reactor is described below in Example XIII. Briefly, four continuous-flow reactors containing different P2O/catalase activity ratios were run in the presence of pure glucose. The half-life of the P2O enzyme in each reactor was determined from the observed change in the amount of glucosone eluting from the reactor over a several-day reaction period. The measured half-lives of P2O expressed in arbitrary half-life units, are given in Example XIII, Table 1. As will be seen from the table, the presence of catalase, at a P2O/catalase activity ratio of less than about 10^-3 and preferably less than about 2×10^-4 (i.e., at an H2 O2 concentration of less than about 0.2mM) extends the measured P2O half-life 30-60 fold with respect to that of P2O reacted with glucose in the absence of catalase.
Secondly, studies indicate that pure glucosone undergoes relatively rapid, nonenzymatic breakdown above a pH of about 7.0. […] Immediately thereafter, the solution was scanned spectrophotometrically in the UV range between 200 and 350 nm, at one minute intervals.

H2O2 concentration above which nonenzymatic breakdown to acidic products may be accelerated [1] | Structure (SMILES) | Relative activity of the enzyme on substrate (P. obtusus P2O) | Relative activity of the enzyme on substrate (C. versicolor P2O) | Relative activity of the enzyme on substrate (L. betulinus P2O) | Change of 310 nm peak (nonenzymatic breakdown) ([1]; pH 6.0) | Change of 310 nm peak (nonenzymatic breakdown) ([1]; pH 7.0, buffered)
– | O=C[C@H](O)[C@@H](O)[C@H](O)[C@H](O)CO [D-glucose] | 100 | 100 | 100 | – | –
– | O=C[C@H](O)[C@@H](O)[C@H](O)CO [D-xylose] | 48 | 41 | 43 | – | –
– | O=C(CO)[C@@H](O)[C@H](O)[C@@H](O)CO [L-sorbose] | 80 | 74 | 43 | – | –
– | O=C1O[C@H](CO)[C@@H](O)[C@H](O)[C@H]1O [delta-D-gluconolactone, D-gluconic acid delta-lactone] | 12 | 6 | 26 | – | –
above 0.2 mM | O=CC(=O)[C@@H](O)[C@H](O)[C@H](O)CO [glucosone, D-arabino-2-hexosulose] | – | – | – | no initial peak at 310 nm was observed nor did one form | increasing several-fold over a five minute period
